In patent US20230117034A1, “PYRAZOLOTRIAZINES” (Bayer Aktiengesellschaft, priority 2019, published 2023):

Biological target: CDK12/CycK (Homo sapiens, UniProt Q9NYV4)
Experiment: CDK12/CycK high ATP kinase assay (TR-FRET, 2 mM ATP)
Assay type: biochemical
Details: 2 mM ATP (high ATP); median; read-out: CDK12/CyclinK, 2 mM ATP (high ATP), IC50-[mol/l] (median)
In short: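 His-tagged human CDK12/CycK (~0.75 nM) pre-incubated 15 min with compound, then 60 min at 22 °C with 2 mM ATP and 1 µM biotinylated peptide (HEPES pH 7.5, 20 mM MgCl2). EDTA stop; phospho-Ser62 antibody/Eu anti-rabbit and streptavidin-XL665 TR-FRET, 665/620 nm ratio normalised to give IC50.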

CDK12/CycK, sequence (Q9NYV4 with tags, fused parts or gaps): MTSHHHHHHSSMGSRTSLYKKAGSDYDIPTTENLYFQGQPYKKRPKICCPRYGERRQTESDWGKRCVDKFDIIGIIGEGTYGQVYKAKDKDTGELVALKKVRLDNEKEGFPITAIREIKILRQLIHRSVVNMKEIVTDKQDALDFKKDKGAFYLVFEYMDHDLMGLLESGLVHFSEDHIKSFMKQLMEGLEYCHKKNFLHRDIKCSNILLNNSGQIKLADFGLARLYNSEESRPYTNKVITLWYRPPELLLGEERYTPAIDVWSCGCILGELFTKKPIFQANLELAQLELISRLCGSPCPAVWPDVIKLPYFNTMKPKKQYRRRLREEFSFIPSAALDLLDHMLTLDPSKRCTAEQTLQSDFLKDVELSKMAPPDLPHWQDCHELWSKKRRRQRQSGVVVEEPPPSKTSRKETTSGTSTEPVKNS
CDK12/CycK, sequence (O75909 1-300 partner limits assumed): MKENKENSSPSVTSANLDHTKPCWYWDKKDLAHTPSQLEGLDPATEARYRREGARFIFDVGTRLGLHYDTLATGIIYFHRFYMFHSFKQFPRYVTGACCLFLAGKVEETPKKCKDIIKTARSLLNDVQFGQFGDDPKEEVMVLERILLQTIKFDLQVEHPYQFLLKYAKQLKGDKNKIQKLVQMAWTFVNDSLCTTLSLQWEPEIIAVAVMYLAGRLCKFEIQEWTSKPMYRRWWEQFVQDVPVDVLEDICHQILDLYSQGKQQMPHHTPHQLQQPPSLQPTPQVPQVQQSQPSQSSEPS

| Structure (SMILES) | IC50 [µM] |
| --- | --- |
| Fc1ccc2[nH]c(CNc3nc(N4CCOCC4)nc4c(C(F)(F)F)cnn34)nc2c1 [Example 273, N-[(5-fluoro-1H-benzimidazol-2-yl)methyl]-2-(morpholin-4-yl)-8-(trifluoromethyl)pyrazolo[1,5-a][1,3,5]triazin-4-amine] | 0.983 |
| CN1CCN(c2nc(NCc3nc4ccccc4[nH]3)n3ncc(C(F)(F)F)c3n2)CC1 [Example 297, N-[(1H-benzimidazol-2-yl)methyl]-2-(4-methylpiperazin-1-yl)-8-(trifluoromethyl)pyrazolo[1,5-a][1,3,5]triazin-4-amine] | 17.4 |
| Brc1cnn2c(NCc3nc4ccccc4[nH]3)nc(NCC3CC3)nc12 [Example 284, N^4-[(1H-benzimidazol-2-yl)methyl]-8-bromo-N^2-(cyclopropylmethyl)pyrazolo[1,5-a][1,3,5]triazine-2,4-diamine] | 5.46 |
| CNC1CCN(c2nc(NCc3nc4ccccc4[nH]3)n3ncc(Br)c3n2)CC1 [Example 272, N-[(1H-benzimidazol-2-yl)methyl]-8-bromo-2-[4-(methylamino)piperidin-1-yl]pyrazolo[1,5-a][1,3,5]triazin-4-amine] | > 20 |
| Brc1cnn2c(NCc3nc4ccccc4[nH]3)nc(N3C[C@H]4CC[C@@H]3CN4)nc12 (single isomer, unassigned) [Example 316, N-[(1H-benzimidazol-2-yl)methyl]-8-bromo-2-{[1R or S-(1R*4R*)]-2,5-diazabicyclo[2.2.2]octan-2-yl}pyrazolo[1,5-a][1,3,5]triazin-4-amine] | 2.92 |
| CN1CCN(c2nc(NCc3nc4ccccc4[nH]3)n3ncc(Br)c3n2)C(CO)C1 (single isomer, unassigned) [Example 280, [(2R or S)-1-(4-{[(1H-benzimidazol-2-yl)methyl]amino}-8-bromopyrazolo[1,5-a][1,3,5]triazin-2-yl)-4-methylpiperazin-2-yl]methanol] | 14.5 |
| Fc1ccc2[nH]c(CNc3nc(N4C[C@H]5CC[C@@H](C4)N5)nc4c(C5CC5)cnn34)nc2c1F [Example 294, 8-cyclopropyl-2-[(1R,5S)-3,8-diazabicyclo[3.2.1]octan-3-yl]-N-[(4,5-difluoro-1H-benzimidazol-2-yl)methyl]pyrazolo[1,5-a][1,3,5]triazin-4-amine] | 1.86 |
| Fc1ccc2[nH]c(CNc3nc(N4CCOCC4)nc4c(C5CCOCC5)cnn34)nc2c1F [Example 276, N-[(4,5-difluoro-1H-benzimidazol-2-yl)methyl]-2-(morpholin-4-yl)-8-(oxan-4-yl)pyrazolo[1,5-a][1,3,5]triazin-4-amine] | > 20 |

Other lines, results leading:

| IC50 [µM] | Structure (SMILES) |
| --- | --- |
| > 16.9 | C[C@@]1(O)CCN(c2nc(NCc3nc4ccccc4[nH]3)n3ncc(Br)c3n2)C1 (single isomer, unassigned) [Example 281, (3R or S)-1-(4-{[(1H-benzimidazol-2-yl)methyl]amino}-8-bromopyrazolo[1,5-a][1,3,5]triazin-2-yl)-3-methylpyrrolidin-3-ol] |
| 11.3 | N[C@@H]1CCN(c2nc(NCc3nc4ccccc4[nH]3)n3ncc(Br)c3n2)C1 [Example 250, 2-[(3R)-3-aminopyrrolidin-1-yl]-N-[(1H-benzimidazol-2-yl)methyl]-8-bromopyrazolo[1,5-a][1,3,5]triazin-4-amine] |
| > 20 | CN[C@H]1CCN(c2nc(NCc3nc4ccccc4[nH]3)n3ncc(Br)c3n2)C1 [Example 252, N-[(1H-benzimidazol-2-yl)methyl]-8-bromo-2-[(3S)-3-(methylamino)pyrrolidin-1-yl]pyrazolo[1,5-a][1,3,5]triazin-4-amine] |
| > 20 | CN[C@@H]1CCN(c2nc(NCc3nc4ccccc4[nH]3)n3ncc(Br)c3n2)C1 [Example 253, N-[(1H-benzimidazol-2-yl)methyl]-8-bromo-2-[(3R)-3-(methylamino)pyrrolidin-1-yl]pyrazolo[1,5-a][1,3,5]triazin-4-amine] |
